Test systems include M19-MEL melanoma; SNB-78 CNS; RXF-631 renal; XF 498 CNS; MDA-MB-435; T-47D breast; BT-549 breast; HS 578T breast; MDA-N.
Holding throughout (test): NCI tumour cell line growth inhibition, 48 h

Values after ≈ are worked out from the molar mass of the structure shown. Values joined by “and” are separate entries in the source; they are usually repeats but may differ in a detail not shown here. Equal entries are not always repeated.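 Assay format: 96-well plates, 48-hour exposure. GI50 = concentration required for 50% inhibition of growth. Definition used: TGI = concentration required for complete inhibition of growth.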

For `CC(=O)NNc1nc(C)c(C(=O)/C=C/c2ccc(Cl)cc2)s1`, the TGI with M19-MEL melanoma and in the assay with SNB-78 CNS was over 100 µM throughout.

As to `C#CC1(O)CCC2[C@@H]3CCc4cc(Oc5nc(F)nc(-c6c7ccccc7c(SCC)n6CCC)n5)ccc4C3CC[C@@]21C` (some centres undefined), the TGI in the assay on RXF-631 renal, in the assay with M19-MEL melanoma, with SNB-78 CNS and in the assay with XF 498 CNS was over 100 µM throughout.

As to `Cc1c(N)nc(C(CC(N)=O)NCC(N)C(N)=O)nc1C(=O)NC(C(=O)NC(C)C(O)C(C)C(=O)NC(C(=O)NCCc1nc(-c2nc(C(=O)NCCCNC(C)c3ccccc3)cs2)cs1)C(C)O)C(OC1OC(CO)C(O)C(O)C1OC1OC(CO)C(O)C(OC(N)=O)C1O)c1cnc[nH]1` (centres undefined), the GI50 is 76 µM with MDA-MB-435, 23.8 µM in the assay on T-47D breast and over 100 µM with MDA-N. Moreover, the TGI with MDA-MB-435 was over 100 µM; with T-47D breast it was 50 µM and > 100 µM; in the assay with M19-MEL melanoma, 50 µM; in the assay on SNB-78 CNS, over 50 µM; in the assay with BT-549 breast, 50 µM; in the assay with HS 578T breast, 0.727 µM. Besides, the values for the TGI with XF 498 CNS and with MDA-N were 50 µM and over 100 µM, respectively.

For the compound `COc1cc2c(cc1OC)C1Cc3ccc(OC)c(OC)c3C[N+]1([O-])CC2` (centres undefined), the TGI with SNB-78 CNS and with XF 498 CNS was over 100 µM each time.

On to `O=S(=O)(N=NC=C1c2ccccc2N(O)c2ccccc21)c1ccc(Cl)cc1`, for which the TGI in the assay with RXF-631 renal, in the assay on M19-MEL melanoma and in the assay on SNB-78 CNS was over 100 µM in each case.

For the compound `COC(=O)[C@@H](C)[C@H]1CC[C@@](C)(CCC2=C(C)CC3C=C(C)CCC3C2(C)C)OO1` (some centres undefined), the TGI in the assay on RXF-631 renal was determined as 4.63 µM; with M19-MEL melanoma, 3.75 µM; in the assay with SNB-78 CNS it was 4.76 µM.

With `Cc1nc(/C=C2\C(=O)C=Cc3ccccc32)c(O)o1`, the TGI with M19-MEL melanoma and in the assay with SNB-78 CNS was over 100 µM each time.

In the case of `CCOC(=O)C1=C(C)N(NC(N)=O)C2(N)N(NC(N)=O)C(C)=C(C(=O)OCC)C12C(=O)OCC` (centres undefined), the TGI in the assay on M19-MEL melanoma and in the assay with XF 498 CNS was over 100 µM in each case.

On to `C=CCN1/C(=C2\SC(=S)N(c3ccc(C)cc3)C2=O)Sc2c1ncn(C)c2=O`, for which the TGI with M19-MEL melanoma, with SNB-78 CNS and in the assay with XF 498 CNS was over 100 µM throughout.

For the compound `COC1CCC(OC)C(C2(C3CC(OC)CCC3OC)OC(=O)c3ccccc32)C1` (centres undefined), the TGI in the assay on RXF-631 renal, with SNB-78 CNS and in the assay on XF 498 CNS was over 100 µM in each case.

For `COc1ccc2c(c1)NC1(O)c3ccccc3C(=O)C21O` (centres undefined), the TGI in the assay on RXF-631 renal, in the assay with M19-MEL melanoma, with SNB-78 CNS and in the assay on XF 498 CNS was over 100 µM throughout.

On to `CC(C(=O)c1ccccc1)C1(O)C(=O)Nc2ccc(Cl)cc21` (centres undefined), for which the TGI is 31.6 µM with M19-MEL melanoma, over 100 µM in the assay with SNB-78 CNS and over 100 µM in the assay on XF 498 CNS.

Consider `CCOC1NC(=O)Oc2cc3ccccc3cc21` (centres undefined), for which the TGI with MDA-MB-435, in the assay with T-47D breast, with BT-549 breast, in the assay with HS 578T breast and in the assay on MDA-N was over 100 µM in each case.

With `COc1cc(OC)c(OC)cc1/C=C/c1cnnc2ccccc12`, the TGI was 6.52 µM with MDA-MB-435; over 10 µM with T-47D breast; over 10 µM with BT-549 breast; over 10 µM with HS 578T breast; over 10 µM with MDA-N.

With `Cc1c(Cl)cccc1NC(=O)/C=C/c1ccccc1`, the TGI in the assay on MDA-MB-435, with T-47D breast, in the assay with BT-549 breast, in the assay on HS 578T breast and in the assay with MDA-N was over 100 µM in each case.

Take `Cc1ccc(S(=O)(=O)OC(COC(=O)c2ccccc2)C(OS(=O)(=O)c2ccc(C)cc2)C(OS(=O)(=O)c2ccc(C)cc2)C(COC(=O)c2ccccc2)OS(=O)(=O)c2ccc(C)cc2)cc1` (centres undefined): the TGI with M19-MEL melanoma and in the assay on SNB-78 CNS was over 100 µM in each case.

As to `C/C(CC(=O)Nc1ccccc1C)=N/NS(=O)(=O)c1ccc(C)cc1`, the TGI in the assay on RXF-631 renal, in the assay on M19-MEL melanoma, in the assay with SNB-78 CNS and in the assay on XF 498 CNS was over 100 µM in each case.

With `COC(=O)/C(C#N)=C(\N)C(Cl)(Cl)Cl`, the TGI in the assay on RXF-631 renal was 6.02 µM; in the assay with M19-MEL melanoma, 6.35 µM; in the assay on SNB-78 CNS, 31.3 µM; with XF 498 CNS it was 4.36 µM.

With `CCCCc1c2cnccc2c(CCCC)c2c1[nH]c1ccccc12`, the TGI in the assay on M19-MEL melanoma came out at 24.9 µM; in the assay on SNB-78 CNS, 77.8 µM; in the assay on XF 498 CNS, 13.3 µM.

Turning to `OC12c3ccccc3C1CCCCCCCCCC21OCCO1` (centres undefined), the TGI in the assay on M19-MEL melanoma and with SNB-78 CNS was over 100 µM each time.

As for `Nc1nc(SCc2ccccc2Cl)cc(C(=O)O)n1`, the TGI in the assay on MDA-MB-435, in the assay with T-47D breast, in the assay with BT-549 breast, in the assay with HS 578T breast and in the assay on MDA-N was over 100 µM each time.

Consider `C=CCC1(C(=O)OC(C)(C)C)C(OC)=C(C(=O)OC(C)(C)C)C2C1C(C(=O)OC(C)(C)C)=C(OC)C2(CC=C)C(=O)OC(C)(C)C` (centres undefined), for which the TGI in the assay with M19-MEL melanoma and in the assay on XF 498 CNS was over 100 µM in each case.

On to `COc1ccc(C(=O)CC2=Nc3nnc(CCCCCCCc4nnc5n4C(=O)C(CC(=O)c4ccc(OC)cc4)=N5)n3C2=O)cc1`, for which the TGI with RXF-631 renal, in the assay with M19-MEL melanoma and in the assay with XF 498 CNS was over 100 µM each time.

On to `CC(C)c1cccc(O)c(=O)c1`, for which the GI50 in the assay with MDA-MB-435 is 2.14 µg/mL; with T-47D breast, 0.0075 µg/mL; in the assay on BT-549 breast, 3.57 µg/mL (≈ 21.8 µM); in the assay with HS 578T breast it was 1.98 µg/mL (≈ 12 µM). For the same compound, the TGI with MDA-MB-435 is 39 µg/mL; with RXF-631 renal it was over 100 µM; with T-47D breast, 0.0075 µg/mL; in the assay with M19-MEL melanoma, over 59.3 µM; in the assay on SNB-78 CNS, over 100 µM; in the assay with BT-549 breast it was 42.4 µg/mL. Also, the TGI in the assay on HS 578T breast is 38.6 µg/mL; with XF 498 CNS, over 100 µM.

Values taken from PubChem BioAssay (NCI).
